In US9884094B2, “Method of treating diabetes mellitus” (Novo Nordisk A/S, priority 2012, dated 2018):

Target: human insulin receptor (Homo sapiens, UniProt P06213)
Assay: Insulin receptor binding, SPA antibody capture assay (Assay I)
Conditions: recombinant human insulin receptor, A14 Tyr[125I]-human insulin
Protocol: A total of 100 μl was then added and a dilution series is made from appropriate samples. […] The phases were the then separated by centrifugation for 1 min and the plates counted in a Topcounter. The binding data were fitted using the nonlinear regression algorithm in the GraphPad Prism 2.01 (GraphPad Software, San Diego, Calif.).
Specific antibodies (F12) were produced by monoclonal technique: RBF mice were immunized by injecting 50 μg of purified mIR in FCA subcutaneously followed by two injections with 20 μg of mIR in FIA. […] Supernatants were screened for antibody production in a mIR specific ELISA. Positive wells were cloned and tested in Western blotting.

human insulin receptor, sequence (P06213 28-1370 isoform P06213-2 limits assumed): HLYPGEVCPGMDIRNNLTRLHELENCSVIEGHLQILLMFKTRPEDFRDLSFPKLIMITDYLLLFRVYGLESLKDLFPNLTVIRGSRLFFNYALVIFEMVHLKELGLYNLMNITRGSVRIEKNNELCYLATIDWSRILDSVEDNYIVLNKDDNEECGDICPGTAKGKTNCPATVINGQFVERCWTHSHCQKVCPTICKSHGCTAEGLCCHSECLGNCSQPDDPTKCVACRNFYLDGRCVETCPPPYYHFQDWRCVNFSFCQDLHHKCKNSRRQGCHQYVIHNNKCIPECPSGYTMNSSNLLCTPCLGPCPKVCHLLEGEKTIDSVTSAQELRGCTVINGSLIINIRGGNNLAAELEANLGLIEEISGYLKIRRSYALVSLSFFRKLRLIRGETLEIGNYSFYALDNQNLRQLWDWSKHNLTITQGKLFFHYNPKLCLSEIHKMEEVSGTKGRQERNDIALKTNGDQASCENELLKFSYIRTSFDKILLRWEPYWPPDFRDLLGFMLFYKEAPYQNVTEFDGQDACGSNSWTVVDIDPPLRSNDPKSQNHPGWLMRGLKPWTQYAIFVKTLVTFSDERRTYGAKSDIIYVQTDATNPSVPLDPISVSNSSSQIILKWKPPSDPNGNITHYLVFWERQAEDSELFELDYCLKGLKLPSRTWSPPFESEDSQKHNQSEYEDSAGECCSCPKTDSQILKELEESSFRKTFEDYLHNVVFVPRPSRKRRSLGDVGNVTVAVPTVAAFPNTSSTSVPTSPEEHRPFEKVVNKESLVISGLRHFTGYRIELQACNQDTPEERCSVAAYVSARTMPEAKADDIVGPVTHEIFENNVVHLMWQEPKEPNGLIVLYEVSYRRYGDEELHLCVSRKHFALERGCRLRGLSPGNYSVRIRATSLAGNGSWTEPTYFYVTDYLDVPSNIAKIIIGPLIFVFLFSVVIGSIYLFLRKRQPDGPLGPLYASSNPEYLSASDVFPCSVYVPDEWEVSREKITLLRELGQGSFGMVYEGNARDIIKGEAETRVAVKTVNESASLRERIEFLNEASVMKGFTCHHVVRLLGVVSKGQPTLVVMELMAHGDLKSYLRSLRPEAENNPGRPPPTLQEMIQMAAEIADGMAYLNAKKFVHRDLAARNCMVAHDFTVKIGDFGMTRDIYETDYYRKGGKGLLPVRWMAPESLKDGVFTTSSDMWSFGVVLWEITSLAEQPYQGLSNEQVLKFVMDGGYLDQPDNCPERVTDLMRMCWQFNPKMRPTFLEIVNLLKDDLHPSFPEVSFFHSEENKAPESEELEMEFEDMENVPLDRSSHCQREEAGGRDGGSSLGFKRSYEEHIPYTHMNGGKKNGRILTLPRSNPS

| Substance | Receptor binding (% of human insulin) |
| --- | --- |
| N^εB29—(N-(L-Glu-OC(CH2)14CO—) des(B30) Human Insulin | 9.4 % of human insulin |
| N^εB29—(N—(HOOC(CH2)14CO-ε-L-LysCO—) des(B30) Human Insulin | 5.7 % of human insulin |
| N^εB29—[N—(HOOC(CH2)16CO)—N-(carboxymethyl)-β-Ala] des(B30) Human Insulin | 9.4 % of human insulin |

Now from value to substance:

| Receptor binding (% of human insulin) | Substance |
| --- | --- |
| 20 % of human insulin | N^εB29—(N-(L-Sar-OC(CH2)13CO-γ-L-Glu) des(B30) Human Insulin |
| 9.2 % of human insulin | NεB29-(Nα—(HOOC(CH2)16CO)-γ-Glu) des(B30) Human Insulin |

Test system: not listed separately
Assay: Hydrophobicity k′rel by RP-HPLC relative to human insulin
Assay type: physicochemical
Conditions: LiChrosorb RP18, isocratic, 40° C., pH 7.3
Protocol: The elution was monitored by following the UV absorption of the eluate at 214 nm. Void time, t0, was found by injecting 0.1 mM sodium nitrate.

| Substance | k′rel (hydrophobic index relative to human insulin) |
| --- | --- |
| N^εB29—(N-(L-Glu-OC(CH2)14CO—) des(B30) Human Insulin | 1.17 |
| N^εB29—(N-(L-Sar-OC(CH2)13CO-γ-L-Glu) des(B30) Human Insulin | 0.63 |
| N^εB29—(N^α—(HOOC(CH2)16CO)-γ-Glu-N-(γ-Glu)) des(B30) Human Insulin | 1.17 |
| N^εB29—(N—(HOOC(CH2)14CO-ε-L-LysCO—) des(B30) Human Insulin | 0.90 |
| NεB29-(Nα—(HOOC(CH2)16CO)-γ-Glu) des(B30) Human Insulin | 1.15 |
